In ChEMBL document CHEMBL1124398, “Full agonists of CCK8 containing a nonhydrolyzable sulfated tyrosine residue” (J Med Chem, 1989):
Starred links: 1 amine or outer side, 2 acyl side, 3 side chain; linkers in the order of their positions; H or OH if unused. Non-standard residues stand in square brackets, D forms with d. Residues, ends and D or L forms follow the SMILES beside them. Phe(4-CH2SO3H) = N[C@@H](Cc1ccc(CS(=O)(=O)O)cc1)C(=O)O; X1 = O=C([C@@H](Cc1ccc(CS(=O)(=O)O)cc1)N[*:1])[*:2]; Nle = CCCC[C@H](N)C(=O)O

Assays:
Cavia porcellus [1] = species on record: Cavia porcellus; assay: The compound was tested for the agonistic activity of contractile activities of Guinea pig ileum; format: functional
Cavia porcellus [2] = species on record: Cavia porcellus; assay: The compound was tested for the agonistic activity of amylase secretion by Guinea pig acini; format: functional

| Structure (SMILES) | EC50 (Cavia porcellus [1]) [nM] | EC50 (Cavia porcellus [2]) [nM] |
| --- | --- | --- |
| CCCC[C@H](NC(=O)[C@H](Cc1c[nH]c2ccccc12)NC(=O)CNC(=O)[C@H](CCCC)NC(=O)[C@@H](Cc1ccc(OS(=O)(=O)O)cc1)NC(=O)OC(C)(C)C)C(=O)N[C@@H](CC(=O)O)C(=O)N[C@@H](Cc1ccccc1)C(N)=O | 28 | 4.5 |
| CCCC[C@H](NC(=O)[C@H](Cc1ccc(OS(=O)(=O)O)cc1)NC(=O)OC(C)(C)C)C(=O)NCC(=O)N[C@@H](Cc1c[nH]c2ccccc12)C(=O)N[C@@H](CCCC)C(=O)N[C@@H](CC(=O)O)C(=O)N[C@@H](Cc1ccccc1)C(N)=O |  | 0.28 |
| CCCC[C@H](NC(=O)[C@H](Cc1ccc(CS(=O)(=O)O)cc1)NC(C)=O)C(=O)NCC(=O)N[C@@H](Cc1c[nH]c2ccccc12)C(=O)N[C@@H](CCCC)C(=O)N[C@@H](CC(=O)O)C(=O)N[C@@H](Cc1ccccc1)C(N)=O (Ac-[Phe(4-CH2SO3H)][Nle]GW[Nle]DF-NH2) | 3.8 | 0.33 |
| CCCC[C@H](NC(=O)[C@H](Cc1c[nH]c2ccccc12)NC(=O)CNC(=O)[C@H](CCCC)NC(=O)[C@@H](Cc1ccc(CS(=O)(=O)O)cc1)NC(C)=O)C(=O)N[C@@H](CC(=O)O)C(=O)N[C@@H](Cc1ccccc1)C(N)=O (Ac-[X1][Nle]GW[Nle]DF-NH2) | 17 | 1.6 |
| CSCC[C@H](NC(=O)[C@H](Cc1ccc(OS(=O)(=O)O)cc1)NC(=O)[C@@H](N)CC(=O)O)C(=O)NCC(=O)N[C@@H](Cc1c[nH]c2ccccc12)C(=O)N[C@@H](CCSC)C(=O)N[C@@H](CC(=O)O)C(=O)N[C@@H](Cc1ccccc1)C(N)=O [SINCALIDE] |  | 0.1 |
